Source: PubChem BioAssay AID248 (DTP/NCI, 2004)
“And” between values parts separate entries of the source, which are not always exact repeats. Equal values may be shown once. Toxic doses and inconclusive results are not listed. Rule as the data show it: active = T/C of 150% or more; inactive = T/C below 125%.

Test system: L1210 leukemia ip in BDF1 mice, survival T/C
Test: NCI In Vivo Anticancer Drug Screen. Data for tumor model L1210 Leukemia (intraperitoneal) in B6D2F1 (BDF1) mice
Details: endpoint: mean survival time, higher = longer survival
How it was run: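 Each compound was tested against a transplantable tumor grown in mice. The endpoint was survival, with treated animals benchmarked against vehicle controls as a simple ratio.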

[1] = dose: 100.0 mg/kg/injection, schedule: Q01DX009 (ip), vehicle: saline with Tween-80
[2] = dose: 200.0 mg/kg/injection, schedule: Q01DX009 (ip), vehicle: saline with Tween-80
[3] = dose: 400.0 mg/kg/injection, schedule: Q01DX009 (ip), vehicle: saline with Tween-80
[4] = dose: 100.0 mg/kg/injection, schedule: Q01DX001 (ip), vehicle: Klucel (hydroxypropylcellulose) (HPC)
[5] = dose: 200.0 mg/kg/injection, schedule: Q01DX001 (ip), vehicle: Klucel (hydroxypropylcellulose) (HPC)
[6] = dose: 400.0 mg/kg/injection, schedule: Q01DX001 (ip), vehicle: Klucel (hydroxypropylcellulose) (HPC)
[7] = dose: 100.0 mg/kg/injection, schedule: Q04DX003 (ip), vehicle: Klucel (hydroxypropylcellulose) (HPC)
[8] = dose: 200.0 mg/kg/injection, schedule: Q04DX003 (ip), vehicle: Klucel (hydroxypropylcellulose) (HPC)
[9] = dose: 400.0 mg/kg/injection, schedule: Q04DX003 (ip), vehicle: Klucel (hydroxypropylcellulose) (HPC)
[10] = dose: 100.0 mg/kg/injection, schedule: Q04DX003 (ip), vehicle: saline
[11] = dose: 200.0 mg/kg/injection, schedule: Q04DX003 (ip), vehicle: saline
[12] = dose: 400.0 mg/kg/injection, schedule: Q04DX003 (ip), vehicle: saline
[13] = dose: 75.0 mg/kg/injection, schedule: Q01DX001 (ip), vehicle: saline
[14] = dose: 150.0 mg/kg/injection, schedule: Q01DX001 (ip), vehicle: saline
[15] = dose: 50.0 mg/kg/injection, schedule: Q01DX001 (ip), vehicle: saline
[16] = dose: 100.0 mg/kg/injection, schedule: Q01DX001 (ip), vehicle: saline
[17] = dose: 200.0 mg/kg/injection, schedule: Q01DX001 (ip), vehicle: saline
[18] = dose: 400.0 mg/kg/injection, schedule: Q01DX001 (ip), vehicle: saline
[19] = dose: 100.0 mg/kg/injection, schedule: Q01DX009 (ip), vehicle: Klucel (hydroxypropylcellulose) (HPC)
[20] = dose: 200.0 mg/kg/injection, schedule: Q01DX009 (ip), vehicle: Klucel (hydroxypropylcellulose) (HPC)
[21] = dose: 400.0 mg/kg/injection, schedule: Q01DX009 (ip), vehicle: Klucel (hydroxypropylcellulose) (HPC)
[22] = dose: 100.0 mg/kg/injection, schedule: Q04DX003 (ip), vehicle: saline with Tween-80
[23] = dose: 200.0 mg/kg/injection, schedule: Q04DX003 (ip), vehicle: saline with Tween-80
[24] = dose: 400.0 mg/kg/injection, schedule: Q04DX003 (ip), vehicle: saline with Tween-80

Measured: T/C

O=C(O)C1CCC=CC1c1ccccc1 (centres undefined)
inactive: dose: 100.0 mg/kg/injection, schedule: Q01DX005 (ip), vehicle: saline with Tween-80 101 % of control | [1] 96 % of control | dose: 200.0 mg/kg/injection, schedule: Q01DX005 (ip), vehicle: saline with Tween-80 101 % of control | [2] 110 % of control | dose: 400.0 mg/kg/injection, schedule: Q01DX005 (ip), vehicle: saline with Tween-80 116 % of control | [3] 110 % of control

Nc1nc(N)c(C=Nc2ccc(I)cc2)c(Nc2ccc(I)cc2)n1
inactive: dose: 400.0 mg/kg/injection, schedule: Q01DX001 (ip), vehicle: alcohol 86 % of control

CCOc1ccc(-n2cnc3ccccc3c2=O)cc1CN(CCCl)CCCl
inactive: [4] 100 % of control | [5] 102 % of control | [6] 100 % of control

Nc1ncnc2c1c(S(=O)(=O)O)cn2C1OC(CO)C(O)C1O (centres undefined)
inactive: [4] 90 % of control | [5] 93 % of control | [6] 100 % of control

CC(=O)OC1CC2CCC1C2Br (centres undefined)
inactive: dose: 100.0 mg/kg/injection, schedule: Q01DX001 (ip), vehicle: carboxymethylcellulose (CMC) 95 % of control | dose: 200.0 mg/kg/injection, schedule: Q01DX001 (ip), vehicle: carboxymethylcellulose (CMC) 93 % of control | dose: 400.0 mg/kg/injection, schedule: Q01DX001 (ip), vehicle: carboxymethylcellulose (CMC) 90 % of control

COC(=O)/C=C\C(=O)OC
inactive: [7] 95 % of control | [8] 100 % of control | [9] 100 % of control

CCN(CC)C(=O)C1C2CC3OC(=O)C1C3C2 (centres undefined)
inactive: [10] 105 % of control and 108 % of control | [11] 94 % of control and 102 % of control | [12] 104 % of control

CCC[n+]1ccc(C#N)cc1
inactive: [13] 106 % of control | [14] 89 % of control

O=c1c2ccccc2[nH]c2c([N+](=O)[O-])cccc12
inactive: [1] 100 % of control | [2] 99 % of control | [3] 87 % of control

CCC(CC)(c1ccccc1)C(OC(N)=O)c1ccccc1 (centres undefined)
inactive: [15] 90 % of control | [16] 101 % of control | [17] 92 % of control | [18] 90 % of control

O=C(CI)c1ccc[nH]1
inactive: [15] 100 % of control | [16] 100 % of control | [17] 103 % of control

O=C(O)C1CCCN(C(=O)OCc2ccccc2)C1 (centres undefined)
inactive: dose: 50.0 mg/kg/injection, schedule: Q01DX009 (ip), vehicle: Klucel (hydroxypropylcellulose) (HPC) 97 % of control | [19] 100 % of control | [7] 90 % of control | [20] 97 % of control | [8] 90 % of control | [9] 97 % of control

[Cl][Hg][Cl].c1cnccn1
inactive: dose: 1.0 mg/kg/injection, schedule: Q01DX009 (ip), vehicle: saline with Tween-80 105 % of control | dose: 2.0 mg/kg/injection, schedule: Q01DX009 (ip), vehicle: saline with Tween-80 93 % of control | dose: 4.0 mg/kg/injection, schedule: Q01DX009 (ip), vehicle: saline with Tween-80 105 % of control | dose: 8.0 mg/kg/injection, schedule: Q04DX003 (ip), vehicle: saline with Tween-80 88 % of control

c1cc[c]([Sn]([c]2ccccc2)([c]2ccccc2)[n]2ccnc2)cc1
inactive: dose: 5.0 mg/kg/injection, schedule: Q01DX001 (ip), vehicle: other 95 % of control | dose: 10.0 mg/kg/injection, schedule: Q01DX001 (ip), vehicle: other 108 % of control

COC1OCC(OC(C)=O)C(NC(C)=O)C1OC(C)=O (centres undefined)
inactive: [16] 100 % of control | [17] 101 % of control | [18] 111 % of control

C=CCCC1(CCC)C(=O)NC(=O)NC1=O
inactive: [13] 103 % of control | [14] 113 % of control | dose: 300.0 mg/kg/injection, schedule: Q01DX001 (ip), vehicle: saline 101 % of control

COc1ccccc1C(O)c1cnc(C)n1Cc1ccccc1 (centres undefined)
inactive: [4] 113 % of control | [19] 96 % of control and 97 % of control | dose: 100.0 mg/kg/injection, schedule: Q04DX002 (ip), vehicle: Klucel (hydroxypropylcellulose) (HPC) 96 % of control and 98 % of control | [7] 92 % of control | [5] 100 % of control | [20] 96 % of control and 103 % of control | dose: 200.0 mg/kg/injection, schedule: Q04DX002 (ip), vehicle: Klucel (hydroxypropylcellulose) (HPC) 98 % of control and 92 % of control | [8] 92 % of control | [6] 95 % of control | [21] 93 % of control and 97 % of control | dose: 400.0 mg/kg/injection, schedule: Q04DX002 (ip), vehicle: Klucel (hydroxypropylcellulose) (HPC) 95 % of control and 92 % of control | [9] 95 % of control

Fc1cc(N(CCCl)CCCl)ccc1CNCCCNCc1ccc(N(CCCl)CCCl)cc1F
inactive: dose: 50.0 mg/kg/injection, schedule: Q01DX001 (ip), vehicle: carboxymethylcellulose (CMC) 93 % of control

CC1(C)N=C(c2ccccc2)C(c2ccccc2)=N1
inactive: [19] 105 % of control | [7] 108 % of control | [20] 98 % of control | [8] 97 % of control | [9] 115 % of control

CN(C)Cc1cccc(-c2ccccc2)c1O
inactive: dose: 100.0 mg/kg/injection, schedule: Q01DX009 (ip), vehicle: saline 107 % of control | [7] 95 % of control | [10] 100 % of control | dose: 200.0 mg/kg/injection, schedule: Q01DX009 (ip), vehicle: saline 107 % of control | [8] 98 % of control | [11] 100 % of control | dose: 400.0 mg/kg/injection, schedule: Q01DX009 (ip), vehicle: saline 103 % of control | [9] 98 % of control | [12] 100 % of control

CCOC(=O)N/N=C(/C)c1ccc(C)cc1
inactive: dose: 50.0 mg/kg/injection, schedule: Q01DX009 (ip), vehicle: saline with Tween-80 95 % of control and 121 % of control | dose: 100.0 mg/kg/injection, schedule: Q01DX001 (ip), vehicle: saline with Tween-80 103 % of control | [1] 105 % of control and 89 % of control | dose: 100.0 mg/kg/injection, schedule: Q04DX002 (ip), vehicle: saline with Tween-80 95 % of control and 104 % of control | [22] 97 % of control | dose: 200.0 mg/kg/injection, schedule: Q01DX001 (ip), vehicle: saline with Tween-80 101 % of control | [2] 101 % of control and 110 % of control | dose: 200.0 mg/kg/injection, schedule: Q04DX002 (ip), vehicle: saline with Tween-80 101 % of control and 110 % of control | [23] 97 % of control | dose: 400.0 mg/kg/injection, schedule: Q01DX001 (ip), vehicle: saline with Tween-80 102 % of control | [24] 110 % of control

Cc1ccc2c(c1)C(=O)CCS2
inactive: [19] 107 % of control | [20] 100 % of control | [21] 102 % of control

COC(=O)c1cc(Cl)ccc1OCC(=O)NCc1ccc(Cl)cc1
inactive: [22] 89 % of control | [23] 102 % of control | [24] 88 % of control

OCC1OC(n2cnc3c([Se]Cc4ccccc4)ncnc32)C(O)C1O (centres undefined)
inactive: dose: 1.56 mg/kg/injection, schedule: Q01DX005 (ip), vehicle: saline 97 % of control | dose: 3.12 mg/kg/injection, schedule: Q01DX005 (ip), vehicle: saline 94 % of control | dose: 3.12 mg/kg/injection, schedule: Q01DX009 (ip), vehicle: saline 103 % of control | dose: 6.25 mg/kg/injection, schedule: Q01DX005 (ip), vehicle: saline 97 % of control | dose: 6.25 mg/kg/injection, schedule: Q01DX009 (ip), vehicle: saline 95 % of control | dose: 12.5 mg/kg/injection, schedule: Q01DX005 (ip), vehicle: saline 110 % of control | dose: 12.5 mg/kg/injection, schedule: Q01DX009 (ip), vehicle: saline 105 % of control

CN(C(=O)/C=C/c1ccc([N+](=O)[O-])cc1)c1ccc(S(=O)(=O)F)cc1
inactive: [19] 91 % of control | [20] 94 % of control | [21] 97 % of control

O=C(O)c1ccc(NC(c2ccccc2)c2ccc3cccnc3c2O)cc1 (centres undefined)
inactive: [16] 86 % of control | [17] 89 % of control | [18] 86 % of control
